According to PubChem BioAssay (NCI):
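All cell lines were grown in 96-well plates and treated with compound for 48 hours. GI50 marks 50% less growth. Definition used: TGI = concentration required for complete inhibition of growth.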

Experiments:
Experiment in all cases: growth of human tumour cells (NCI), 48 h
NCI-H460 lung = test system: NCI-H460 lung
MCF7 breast = test system: MCF7 breast
SK-MEL-5 melanoma = test system: SK-MEL-5 melanoma
NCI-H226 lung = test system: NCI-H226 lung
HCT-15 colon = test system: HCT-15 colon
BT-549 breast = test system: BT-549 breast
KM12 colon = test system: KM12 colon
MOLT-4 leukemia = test system: MOLT-4 leukemia
U251 CNS = test system: U251 CNS
OVCAR-8 ovarian = test system: OVCAR-8 ovarian
PC-3 prostate = test system: PC-3 prostate

SMILES	TGI (NCI-H460 lung) [µM]	TGI (MCF7 breast) [µM]	TGI (SK-MEL-5 melanoma) [µM]	TGI (NCI-H226 lung) [µM]	TGI (HCT-15 colon) [µM]	TGI (BT-549 breast) [µM]	TGI (KM12 colon) [µM]	TGI (MOLT-4 leukemia) [µM]	TGI (U251 CNS) [µM]	TGI (OVCAR-8 ovarian) [µM]	TGI (PC-3 prostate) [µM]	GI50 (NCI-H226 lung) [µM]	GI50 (BT-549 breast) [µM]	GI50 (U251 CNS) [µM]	GI50 (PC-3 prostate) [µM]
O=C(c1cc(Cl)cc(Cl)c1)N1CCN(C(=O)c2cc(Cl)cc(Cl)c2)C1=S	37.2	12.5	33.7	49.8	31	70.8	24.8	19.6	26.4	44.5	30.3	–	–	–	–
CC[C@]1(Cc2ccc(OC)c(OC)c2)[C@@H]2C[C@@H](C3OCCO3)ON2O[C@H](OC2CCCC2(c2ccccc2)c2ccccc2)[C@@H]1OC(C)=O (some centres undefined)	34.7	41.1	37.7	36.5	30.3	55.9	29.5	29	> 100	46.4	63.8	–	–	–	–
CC(/C=N\NC(=S)N1CCCCC1)=N/NC(=S)N1CCCCC1	9.76	> 45.8	3.86	2.6	19.5	13.4	13.7	> 100	13	16.1	11.9	–	–	–	–
C[C@H]1C2Cc3cc(N)ccc3[C@@]1(C)CCN2CCc1ccccc1	> 100	94.1	37.2	> 100	> 100	> 100	> 100	> 100	> 100	> 100	49.9	–	–	–	–
CC12CC(C#N)(C#N)C(C#N)(CO1)C(=N)O2 (centres undefined)	> 100	> 100	> 100	> 100	> 100	> 100	> 100	> 100	> 100	> 100	> 100	–	–	–	–
Oc1ccc(-c2nc(-c3ccc(F)cc3)c(-c3ccc4ccccc4n3)[nH]2)cc1	18.4	18.7	17.7	28.6	23.6	36.6	19.1	25.2	24.4	32	22.6	–	–	–	–
O=C1NN=C2C=C(c3ccc(Cl)cc3)CC(c3cccc(Cl)c3)C12 (centres undefined)	47.2	48.5	39.9	60.6	32.8	> 100	> 100	52.9	39.9	> 100	> 100	–	–	–	–
O=C1C[C@H]2[C@@H](O1)[C@@H](O)CN1C(=O)c3ccccc3[C@H]21	> 100	> 100	> 100	> 100	> 100	> 100	> 100	> 100	> 100	> 100	> 100	–	–	–	–
COc1cccc2c1C(=O)c1c(O)c3c(c(O)c1C2=O)C[C@@](O)(C(=O)CO)C[C@@H]3OC1CC(N)C(OC)C(C)O1 (some centres undefined)	0.217	0.41	0.189	0.47	13.2	1.47	0.931	0.0517	0.441	1.21	1.64	–	–	–	–
CCOC(=O)c1ccc(C(=O)/C(C#N)=C2\CCCN2C)[nH]1	> 100	> 100	> 100	> 100	> 100	> 100	> 100	> 100	> 100	> 100	> 100	–	–	–	–
O=[N+]([O-])c1ccc(S(=O)(=O)N=Ic2ccccc2)cc1	> 100	> 100	> 100	> 100	> 100	> 100	> 100	> 100	> 100	> 100	> 100	–	–	–	–
CC(=O)OC1O[C@@H](C(C)(C)O)CC[C@@H]1[C@H]1CC[C@@]2(C)C3=C(CC[C@]12C)[C@@]1(C)C[C@@H](OC(=O)CC(C)(O)CC(=O)O)[C@H](OC(C)=O)C(C)(C)C1CC3 (some centres undefined)	32.7	32.5	33.3	49.6	43.1	29.9	44.9	43.9	31.4	33.1	30.9	–	–	–	–
NCCCNCCCCNCCCN	> 100	13.1	> 100	> 100	7.63	> 24.5	> 100	17.5	> 63.7	> 100	> 100	–	–	–	–
Cc1ccc(-c2c3c(n(C4OC(CO)C(O)C(O)C4O)c(=S)c2C#N)CC(C)(C)CC3=O)cc1 (centres undefined)	> 100	> 100	> 100	> 100	> 100	> 100	> 100	> 100	> 100	> 100	> 100	–	–	–	–
O=c1cc(-c2ccccc2)[nH]c2c(S)cccc12	> 100	> 100	> 100	99.7	> 100	> 100	> 100	> 100	> 100	> 100	> 100	–	–	–	–
COc1ccc(C(O)c2nccn2C)c(OC)c1 (centres undefined)	> 100	> 100	> 100	> 100	> 100	> 100	> 100	> 100	> 100	> 100	> 100	–	–	–	–
Cn1c(N)c2c3c(sc2nc1=O)CCCC3	> 75	> 75	> 75	> 75	> 75	> 75	> 75	> 75	> 75	> 75	> 75	–	–	–	–
Cc1c(CNc2ccc(C(=O)NC(CC(=O)O)C(=O)O)cc2)ccc2nc(N)nc(N)c12 (centres undefined)	> 1000	> 1000	> 1000	> 1000	> 1000	> 1000	> 1000	> 1000	> 1000	> 1000	> 1000	> 1000	> 1000	0.226	< 0.01
O=P(O)(Cc1ccccc1)c1ccccc1-c1ccccc1	> 100	> 100	> 100	> 100	> 100	> 100	> 100	> 100	> 100	> 100	> 100	–	–	–	–
CCO/C=N/NC(=O)CSc1nc2ccc(I)cc2c(=O)n1Cc1ccccc1	> 100	> 100	> 100	> 100	> 100	> 100	> 100	> 100	> 100	> 100	> 100	–	–	–	–
COC(=O)c1c(O)ccc2c1c1c(n2Cc2ccc(Cl)cc2Cl)C(=O)c2ccccc2C1	> 100	89.9	> 100	73.2	> 100	> 100	> 100	> 100	> 100	> 100	73.3	–	–	–	–
CCOC(=O)c1cc(C2(O)CCN(CC(C)CC)C2=O)c(-c2cc(C)no2)[nH]1 (centres undefined)	> 100	> 100	> 100	> 100	> 100	> 100	> 100	> 100	> 100	> 100	> 100	–	–	–	–
CC(C)(C)C(=O)OC(N)/C=C/c1ccccc1 (centres undefined)	> 100	> 100	> 100	> 100	> 100	> 100	> 100	> 100	> 100	> 100	> 100	–	–	–	–
C[C@@]12CCC3C1C=C1C(=O)c4cc(O)ccc4C(=O)[C@]1(O2)[C@@]3(C)C=O	10.6	11.6	16.1	44.5	11.5	8.69	18.1	12.9	19	42.6	19.5	–	–	–	–
CC(=O)Nc1ccc(-c2nc3cc(Cl)ccc3o2)cc1	> 50	> 50	> 50	> 50	> 50	> 50	> 50	> 50	> 50	> 50	> 50	–	–	–	–
N#C/C(N)=C(\C#N)NC=NCc1ccccc1	> 100	> 100	> 100	> 100	> 100	> 100	> 100	> 100	> 100	> 100	> 100	–	–	–	–
CCCCCC(/C=C/C1CCC(=O)C1CC#C[Si](C)(C)C)OCc1ccccc1 (centres undefined)	30.7	44	27.9	> 94.7	30.1	33.8	33	> 68.9	40.6	31.1	> 64.1	–	–	–	–
Cc1cc(C)nc(NS(=O)(=O)c2ccc(NNC(=O)c3cccc4c(=O)c5ccccc5[nH]c34)cc2)n1	> 100	> 100	> 100	> 100	> 100	> 100	> 100	> 100	> 100	> 100	> 100	–	–	–	–
COc1cc(C2SCC(=O)N2c2ccc(Cl)c(Cl)c2)cc(OC)c1OC (centres undefined)	> 100	> 100	> 100	> 79.4	> 100	98	51	> 67	> 100	> 100	> 100	–	–	–	–
CC(C)(C)c1cc(C(=O)/C=C/C=C/c2ccccc2)cc(C(C)(C)C)c1O	31.5	> 86.6	37.2	77.2	> 67.1	57.2	> 92.7	> 63.1	33.5	58.5	> 79.9	–	–	–	–
